Results as given in the kinase profiling compilation of Christmann-Franck et al. (2016).

Target: FGFR3 (human) (UniProt P22607)
Experiment: radiometric filter-binding kinase assay, Kinase HotSpot
Conditions: compound 0.5 µM; ATP 10 µM

Going from `O=S(=O)(NCCNC/C=C/c1ccc(Br)cc1)c1cccc2cnccc12` to `c1ccc(-c2cnc(Nc3ccc(OCCN4CCCC4)cc3)s2)cc1`, the residual activity rises from 91.3% to 98.2%.

Target: EPHB2 (human) (UniProt P29323)
Experiment: as above
Conditions: compound 0.5 µM; ATP 10 µM

Compared with `COc1cc2c(Nc3ccc(Br)cc3F)ncnc2cc1OCC1CCN(C)CC1`, `c1ccc(-c2cnc(Nc3ccc(OCCN4CCCC4)cc3)s2)cc1` is higher in residual activity: 24.4% for the first, 75.6% for the second.

Going from `N/C(=N\N=C/c1ccc(-c2cccc([N+](=O)[O-])c2)o1)N[N+](=O)[O-]` to `O=S(=O)(NCCNC/C=C/c1ccc(Br)cc1)c1cccc2cnccc12`, the residual activity falls from 84.6% to 81.7%.

Target: GRK5 (human) (UniProt P34947)
Experiment: as above
Conditions: compound 0.5 µM; ATP 10 µM

Compared with `COc1cc2c(Nc3ccc(Br)cc3F)ncnc2cc1OCC1CCN(C)CC1`, `c1ccc(-c2cnc(Nc3ccc(OCCN4CCCC4)cc3)s2)cc1` is higher in residual activity: 95.8% for the first, 99.4% for the second.

First: N/C(=N\N=C/c1ccc(-c2cccc([N+](=O)[O-])c2)o1)N[N+](=O)[O-]
Second: O=S(=O)(NCCNC/C=C/c1ccc(Br)cc1)c1cccc2cnccc12
The residual activity of the first is lower: 123% for the first, 127% for the second.

Target: IRAK4 (human) (UniProt Q9NWZ3)
Experiment: as above
Conditions: compound 0.5 µM; ATP 10 µM

First: COc1cc2c(Nc3ccc(Br)cc3F)ncnc2cc1OCC1CCN(C)CC1
Second: c1ccc(-c2cnc(Nc3ccc(OCCN4CCCC4)cc3)s2)cc1
The residual activity of the first is lower: 35.3% for the first, 86.1% for the second.

Compared with `N/C(=N\N=C/c1ccc(-c2cccc([N+](=O)[O-])c2)o1)N[N+](=O)[O-]`, `O=S(=O)(NCCNC/C=C/c1ccc(Br)cc1)c1cccc2cnccc12` is higher in residual activity: 87.3% for the first, 110% for the second.

Target: GSK3A (human) (UniProt P49840)
Sequence (P49840 whole entry, looked up): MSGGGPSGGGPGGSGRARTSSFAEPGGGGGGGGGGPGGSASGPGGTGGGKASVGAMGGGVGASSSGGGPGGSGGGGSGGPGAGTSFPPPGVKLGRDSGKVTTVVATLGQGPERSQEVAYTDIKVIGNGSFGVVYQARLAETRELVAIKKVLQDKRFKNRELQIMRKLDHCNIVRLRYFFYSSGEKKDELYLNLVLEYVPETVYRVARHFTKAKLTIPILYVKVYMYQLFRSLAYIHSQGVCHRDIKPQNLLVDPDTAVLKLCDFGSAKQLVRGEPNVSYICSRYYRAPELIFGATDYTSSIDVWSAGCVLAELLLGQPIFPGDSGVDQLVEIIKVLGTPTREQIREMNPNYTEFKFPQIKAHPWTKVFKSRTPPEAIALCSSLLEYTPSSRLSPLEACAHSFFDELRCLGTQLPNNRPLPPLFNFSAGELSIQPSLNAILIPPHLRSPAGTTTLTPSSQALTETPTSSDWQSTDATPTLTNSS
Experiment: as above
Conditions: compound 0.5 µM; ATP 10 µM

First: COc1cc2c(Nc3ccc(Br)cc3F)ncnc2cc1OCC1CCN(C)CC1
Second: c1ccc(-c2cnc(Nc3ccc(OCCN4CCCC4)cc3)s2)cc1
The residual activity of the first is higher: 103% for the first, 99.2% for the second.

Compared with `N/C(=N\N=C/c1ccc(-c2cccc([N+](=O)[O-])c2)o1)N[N+](=O)[O-]`, `O=S(=O)(NCCNC/C=C/c1ccc(Br)cc1)c1cccc2cnccc12` is lower in residual activity: 108% for the first, 94.3% for the second.

Target: MAPKAPK2 (human) (UniProt P49137)
Experiment: as above
Conditions: compound 0.5 µM; ATP 10 µM

First: COc1cc2c(Nc3ccc(Br)cc3F)ncnc2cc1OCC1CCN(C)CC1
Second: N/C(=N\N=C/c1ccc(-c2cccc([N+](=O)[O-])c2)o1)N[N+](=O)[O-]
The residual activity of the first is higher: 99.5% for the first, 96.3% for the second.

Target: AURKB (human) (UniProt Q96GD4)
Sequence (Q96GD4 whole entry, looked up): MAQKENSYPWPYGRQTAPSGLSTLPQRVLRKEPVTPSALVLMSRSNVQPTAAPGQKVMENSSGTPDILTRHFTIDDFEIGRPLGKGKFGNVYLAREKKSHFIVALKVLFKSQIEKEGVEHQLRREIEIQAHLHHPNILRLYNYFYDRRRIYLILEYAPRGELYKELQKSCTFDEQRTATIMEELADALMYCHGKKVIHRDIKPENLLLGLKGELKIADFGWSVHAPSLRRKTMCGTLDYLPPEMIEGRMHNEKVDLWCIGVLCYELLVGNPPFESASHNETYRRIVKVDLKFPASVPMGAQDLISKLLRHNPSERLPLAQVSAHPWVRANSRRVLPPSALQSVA
Experiment: as above
Conditions: compound 0.5 µM; ATP 10 µM

Going from `COc1cc2c(Nc3ccc(Br)cc3F)ncnc2cc1OCC1CCN(C)CC1` to `c1ccc(-c2cnc(Nc3ccc(OCCN4CCCC4)cc3)s2)cc1`, the residual activity falls from 95.5% to 75.8%.

Compared with `N/C(=N\N=C/c1ccc(-c2cccc([N+](=O)[O-])c2)o1)N[N+](=O)[O-]`, `O=S(=O)(NCCNC/C=C/c1ccc(Br)cc1)c1cccc2cnccc12` is lower in residual activity: 99.1% for the first, 97.8% for the second.

Target: DAPK2 (human) (UniProt Q9UIK4)
Sequence (Q9UIK4 whole entry, looked up): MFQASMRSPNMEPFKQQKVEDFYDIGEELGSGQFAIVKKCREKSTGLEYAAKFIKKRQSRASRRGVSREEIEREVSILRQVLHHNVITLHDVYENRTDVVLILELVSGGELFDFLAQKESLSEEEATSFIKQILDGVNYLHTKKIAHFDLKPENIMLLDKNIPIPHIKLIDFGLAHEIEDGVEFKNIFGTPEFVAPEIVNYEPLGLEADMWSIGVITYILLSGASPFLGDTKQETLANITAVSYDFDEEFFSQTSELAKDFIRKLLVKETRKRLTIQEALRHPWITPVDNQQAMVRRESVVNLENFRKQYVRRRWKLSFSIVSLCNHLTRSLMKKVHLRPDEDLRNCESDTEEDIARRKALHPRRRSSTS
Experiment: as above
Conditions: compound 0.5 µM; ATP 10 µM

Going from `COc1cc2c(Nc3ccc(Br)cc3F)ncnc2cc1OCC1CCN(C)CC1` to `c1ccc(-c2cnc(Nc3ccc(OCCN4CCCC4)cc3)s2)cc1`, the residual activity falls from 93.3% to 90.3%.

Compared with `N/C(=N\N=C/c1ccc(-c2cccc([N+](=O)[O-])c2)o1)N[N+](=O)[O-]`, `O=S(=O)(NCCNC/C=C/c1ccc(Br)cc1)c1cccc2cnccc12` is lower in residual activity: 80.1% for the first, 72.1% for the second.

Target: MAP4K4 (human) (UniProt O95819)
Sequence (O95819 whole entry, looked up): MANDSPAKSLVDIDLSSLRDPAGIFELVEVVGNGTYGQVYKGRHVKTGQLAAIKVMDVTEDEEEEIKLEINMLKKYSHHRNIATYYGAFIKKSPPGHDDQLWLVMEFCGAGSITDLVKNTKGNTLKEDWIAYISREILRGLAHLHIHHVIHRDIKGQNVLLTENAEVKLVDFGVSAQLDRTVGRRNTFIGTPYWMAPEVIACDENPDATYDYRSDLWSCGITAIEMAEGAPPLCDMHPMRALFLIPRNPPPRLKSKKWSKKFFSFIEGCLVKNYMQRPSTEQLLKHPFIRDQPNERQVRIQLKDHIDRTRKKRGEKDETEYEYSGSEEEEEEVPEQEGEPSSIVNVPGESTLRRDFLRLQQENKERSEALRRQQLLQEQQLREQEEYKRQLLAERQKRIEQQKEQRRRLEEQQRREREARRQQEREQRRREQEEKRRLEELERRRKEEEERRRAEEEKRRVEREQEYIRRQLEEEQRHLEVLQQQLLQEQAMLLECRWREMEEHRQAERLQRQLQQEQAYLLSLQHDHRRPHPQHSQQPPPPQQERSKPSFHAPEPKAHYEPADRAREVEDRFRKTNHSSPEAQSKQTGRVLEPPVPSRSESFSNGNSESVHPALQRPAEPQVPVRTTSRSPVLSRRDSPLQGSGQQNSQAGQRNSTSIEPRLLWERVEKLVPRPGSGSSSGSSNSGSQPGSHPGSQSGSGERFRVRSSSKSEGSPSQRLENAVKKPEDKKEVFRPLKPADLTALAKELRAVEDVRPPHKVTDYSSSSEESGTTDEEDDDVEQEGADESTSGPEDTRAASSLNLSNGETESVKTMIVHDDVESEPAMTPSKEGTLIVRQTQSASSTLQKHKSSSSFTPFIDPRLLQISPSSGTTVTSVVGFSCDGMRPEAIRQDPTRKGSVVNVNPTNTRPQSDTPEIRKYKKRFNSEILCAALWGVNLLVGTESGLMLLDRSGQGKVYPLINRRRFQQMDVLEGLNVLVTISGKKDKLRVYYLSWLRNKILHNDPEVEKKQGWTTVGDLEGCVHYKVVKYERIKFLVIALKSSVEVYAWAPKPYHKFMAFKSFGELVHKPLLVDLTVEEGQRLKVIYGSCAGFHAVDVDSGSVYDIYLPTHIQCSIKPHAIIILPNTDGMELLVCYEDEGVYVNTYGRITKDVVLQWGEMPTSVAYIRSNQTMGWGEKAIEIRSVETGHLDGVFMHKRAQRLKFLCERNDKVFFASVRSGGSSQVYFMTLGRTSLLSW
Experiment: as above
Conditions: compound 0.5 µM; ATP 10 µM

Compared with `COc1cc2c(Nc3ccc(Br)cc3F)ncnc2cc1OCC1CCN(C)CC1`, `c1ccc(-c2cnc(Nc3ccc(OCCN4CCCC4)cc3)s2)cc1` is lower in residual activity: 79.8% for the first, 35.5% for the second.

Compared with `N/C(=N\N=C/c1ccc(-c2cccc([N+](=O)[O-])c2)o1)N[N+](=O)[O-]`, `O=S(=O)(NCCNC/C=C/c1ccc(Br)cc1)c1cccc2cnccc12` is lower in residual activity: 95.6% for the first, 43.8% for the second.

Target: PRKCI (human) (UniProt P41743)
Experiment: as above
Conditions: compound 0.5 µM; ATP 10 µM

First: COc1cc2c(Nc3ccc(Br)cc3F)ncnc2cc1OCC1CCN(C)CC1
Second: c1ccc(-c2cnc(Nc3ccc(OCCN4CCCC4)cc3)s2)cc1
The residual activity of the first is lower: 88.1% for the first, 93.1% for the second.

Compared with `N/C(=N\N=C/c1ccc(-c2cccc([N+](=O)[O-])c2)o1)N[N+](=O)[O-]`, `O=S(=O)(NCCNC/C=C/c1ccc(Br)cc1)c1cccc2cnccc12` is lower in residual activity: 92.3% for the first, 88.4% for the second.

Target: FLT3 (human) (UniProt P36888)
Experiment: as above
Conditions: compound 0.5 µM; ATP 10 µM

Compared with `COc1cc2c(Nc3ccc(Br)cc3F)ncnc2cc1OCC1CCN(C)CC1`, `c1ccc(-c2cnc(Nc3ccc(OCCN4CCCC4)cc3)s2)cc1` is lower in residual activity: 43.7% for the first, 3.1% for the second.

Going from `N/C(=N\N=C/c1ccc(-c2cccc([N+](=O)[O-])c2)o1)N[N+](=O)[O-]` to `O=S(=O)(NCCNC/C=C/c1ccc(Br)cc1)c1cccc2cnccc12`, the residual activity falls from 99.3% to 89.6%.

Target: PRKG2 (human) (UniProt Q13237)
Experiment: as above
Conditions: compound 0.5 µM; ATP 10 µM

Going from `COc1cc2c(Nc3ccc(Br)cc3F)ncnc2cc1OCC1CCN(C)CC1` to `c1ccc(-c2cnc(Nc3ccc(OCCN4CCCC4)cc3)s2)cc1`, the residual activity rises from 101% to 106%.

Going from `N/C(=N\N=C/c1ccc(-c2cccc([N+](=O)[O-])c2)o1)N[N+](=O)[O-]` to `O=S(=O)(NCCNC/C=C/c1ccc(Br)cc1)c1cccc2cnccc12`, the residual activity falls from 98.7% to 56.9%.

Target: PRKD2 (human) (UniProt Q9BZL6)
Experiment: as above
Conditions: compound 0.5 µM; ATP 10 µM

Compared with `COc1cc2c(Nc3ccc(Br)cc3F)ncnc2cc1OCC1CCN(C)CC1`, `c1ccc(-c2cnc(Nc3ccc(OCCN4CCCC4)cc3)s2)cc1` is lower in residual activity: 92% for the first, 82.2% for the second.

First: N/C(=N\N=C/c1ccc(-c2cccc([N+](=O)[O-])c2)o1)N[N+](=O)[O-]
Second: O=S(=O)(NCCNC/C=C/c1ccc(Br)cc1)c1cccc2cnccc12
The residual activity of the first is higher: 94.3% for the first, 75.9% for the second.

Target: MAPK8 (human) (UniProt P45983)
Sequence (P45983 whole entry, looked up): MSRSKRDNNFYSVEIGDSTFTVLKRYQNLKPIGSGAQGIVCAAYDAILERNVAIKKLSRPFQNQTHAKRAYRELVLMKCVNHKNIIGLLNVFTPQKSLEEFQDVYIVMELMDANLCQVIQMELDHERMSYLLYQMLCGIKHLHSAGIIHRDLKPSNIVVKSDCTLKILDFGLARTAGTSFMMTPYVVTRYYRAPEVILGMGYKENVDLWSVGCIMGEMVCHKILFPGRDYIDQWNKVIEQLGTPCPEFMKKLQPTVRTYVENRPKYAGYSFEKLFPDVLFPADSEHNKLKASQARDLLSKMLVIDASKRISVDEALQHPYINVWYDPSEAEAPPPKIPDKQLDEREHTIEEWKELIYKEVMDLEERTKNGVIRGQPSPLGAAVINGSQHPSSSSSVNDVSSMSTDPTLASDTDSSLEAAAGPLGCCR
Experiment: as above
Conditions: compound 0.5 µM; ATP 10 µM

Going from `COc1cc2c(Nc3ccc(Br)cc3F)ncnc2cc1OCC1CCN(C)CC1` to `c1ccc(-c2cnc(Nc3ccc(OCCN4CCCC4)cc3)s2)cc1`, the residual activity falls from 93.7% to 92.4%.

First: N/C(=N\N=C/c1ccc(-c2cccc([N+](=O)[O-])c2)o1)N[N+](=O)[O-]
Second: O=S(=O)(NCCNC/C=C/c1ccc(Br)cc1)c1cccc2cnccc12
The residual activity of the first is lower: 91.2% for the first, 92.7% for the second.

Target: CSNK1D (human) (UniProt P48730)
Experiment: as above
Conditions: compound 0.5 µM; ATP 10 µM

Going from `COc1cc2c(Nc3ccc(Br)cc3F)ncnc2cc1OCC1CCN(C)CC1` to `c1ccc(-c2cnc(Nc3ccc(OCCN4CCCC4)cc3)s2)cc1`, the residual activity rises from 94.4% to 95.8%.

For `N/C(=N\N=C/c1ccc(-c2cccc([N+](=O)[O-])c2)o1)N[N+](=O)[O-]`, the residual activity was 99.8%.

Target: CLK2 (human) (UniProt P49760)
Sequence (P49760 whole entry, looked up): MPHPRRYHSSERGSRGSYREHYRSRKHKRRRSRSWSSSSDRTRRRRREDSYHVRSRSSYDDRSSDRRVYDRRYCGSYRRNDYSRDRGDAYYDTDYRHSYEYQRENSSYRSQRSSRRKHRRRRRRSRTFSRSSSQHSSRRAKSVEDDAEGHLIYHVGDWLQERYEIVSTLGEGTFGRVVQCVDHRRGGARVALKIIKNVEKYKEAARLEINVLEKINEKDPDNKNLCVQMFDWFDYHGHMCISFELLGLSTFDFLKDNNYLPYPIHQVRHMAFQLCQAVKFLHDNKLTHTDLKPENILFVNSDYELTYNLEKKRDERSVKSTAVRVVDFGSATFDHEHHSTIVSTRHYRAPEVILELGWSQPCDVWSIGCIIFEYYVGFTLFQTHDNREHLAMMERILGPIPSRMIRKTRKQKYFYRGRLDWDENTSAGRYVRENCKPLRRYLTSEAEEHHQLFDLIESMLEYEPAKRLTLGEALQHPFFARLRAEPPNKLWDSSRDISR
Experiment: as above
Conditions: compound 0.5 µM; ATP 10 µM

First: COc1cc2c(Nc3ccc(Br)cc3F)ncnc2cc1OCC1CCN(C)CC1
Second: c1ccc(-c2cnc(Nc3ccc(OCCN4CCCC4)cc3)s2)cc1
The residual activity of the first is lower: 89.7% for the first, 102% for the second.

Compared with `N/C(=N\N=C/c1ccc(-c2cccc([N+](=O)[O-])c2)o1)N[N+](=O)[O-]`, `O=S(=O)(NCCNC/C=C/c1ccc(Br)cc1)c1cccc2cnccc12` is higher in residual activity: 88.3% for the first, 106% for the second.

Target: MELK (human) (UniProt Q14680)
Sequence (Q14680 whole entry, looked up): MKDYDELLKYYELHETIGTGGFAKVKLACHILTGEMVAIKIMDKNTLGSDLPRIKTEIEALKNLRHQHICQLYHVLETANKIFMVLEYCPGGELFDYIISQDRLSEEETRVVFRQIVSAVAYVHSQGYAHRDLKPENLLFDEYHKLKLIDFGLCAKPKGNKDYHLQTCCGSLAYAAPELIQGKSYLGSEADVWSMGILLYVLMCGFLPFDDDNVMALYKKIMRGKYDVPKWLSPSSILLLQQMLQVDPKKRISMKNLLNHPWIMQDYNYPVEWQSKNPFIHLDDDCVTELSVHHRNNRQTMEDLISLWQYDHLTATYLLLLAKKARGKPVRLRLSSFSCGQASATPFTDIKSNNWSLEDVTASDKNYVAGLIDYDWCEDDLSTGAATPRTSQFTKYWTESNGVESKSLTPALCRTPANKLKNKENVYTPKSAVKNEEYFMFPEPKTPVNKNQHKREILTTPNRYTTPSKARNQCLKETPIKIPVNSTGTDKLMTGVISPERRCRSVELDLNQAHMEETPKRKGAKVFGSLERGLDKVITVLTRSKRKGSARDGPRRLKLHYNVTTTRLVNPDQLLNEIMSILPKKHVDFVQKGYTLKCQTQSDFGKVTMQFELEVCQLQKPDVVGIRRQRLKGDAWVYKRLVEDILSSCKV
Experiment: as above
Conditions: compound 0.5 µM; ATP 10 µM

Compared with `COc1cc2c(Nc3ccc(Br)cc3F)ncnc2cc1OCC1CCN(C)CC1`, `c1ccc(-c2cnc(Nc3ccc(OCCN4CCCC4)cc3)s2)cc1` is lower in residual activity: 94.4% for the first, 83.5% for the second.

Compared with `N/C(=N\N=C/c1ccc(-c2cccc([N+](=O)[O-])c2)o1)N[N+](=O)[O-]`, `O=S(=O)(NCCNC/C=C/c1ccc(Br)cc1)c1cccc2cnccc12` is lower in residual activity: 102% for the first, 75.1% for the second.

Target: NEK3 (human) (UniProt P51956)
Experiment: as above
Conditions: compound 0.5 µM; ATP 10 µM

Compared with `COc1cc2c(Nc3ccc(Br)cc3F)ncnc2cc1OCC1CCN(C)CC1`, `c1ccc(-c2cnc(Nc3ccc(OCCN4CCCC4)cc3)s2)cc1` is lower in residual activity: 103% for the first, 92.9% for the second.

Going from `N/C(=N\N=C/c1ccc(-c2cccc([N+](=O)[O-])c2)o1)N[N+](=O)[O-]` to `O=S(=O)(NCCNC/C=C/c1ccc(Br)cc1)c1cccc2cnccc12`, the residual activity falls from 101% to 94.4%.

Target: PKN2 (human) (UniProt Q16513)
Sequence (Q16513 whole entry, looked up): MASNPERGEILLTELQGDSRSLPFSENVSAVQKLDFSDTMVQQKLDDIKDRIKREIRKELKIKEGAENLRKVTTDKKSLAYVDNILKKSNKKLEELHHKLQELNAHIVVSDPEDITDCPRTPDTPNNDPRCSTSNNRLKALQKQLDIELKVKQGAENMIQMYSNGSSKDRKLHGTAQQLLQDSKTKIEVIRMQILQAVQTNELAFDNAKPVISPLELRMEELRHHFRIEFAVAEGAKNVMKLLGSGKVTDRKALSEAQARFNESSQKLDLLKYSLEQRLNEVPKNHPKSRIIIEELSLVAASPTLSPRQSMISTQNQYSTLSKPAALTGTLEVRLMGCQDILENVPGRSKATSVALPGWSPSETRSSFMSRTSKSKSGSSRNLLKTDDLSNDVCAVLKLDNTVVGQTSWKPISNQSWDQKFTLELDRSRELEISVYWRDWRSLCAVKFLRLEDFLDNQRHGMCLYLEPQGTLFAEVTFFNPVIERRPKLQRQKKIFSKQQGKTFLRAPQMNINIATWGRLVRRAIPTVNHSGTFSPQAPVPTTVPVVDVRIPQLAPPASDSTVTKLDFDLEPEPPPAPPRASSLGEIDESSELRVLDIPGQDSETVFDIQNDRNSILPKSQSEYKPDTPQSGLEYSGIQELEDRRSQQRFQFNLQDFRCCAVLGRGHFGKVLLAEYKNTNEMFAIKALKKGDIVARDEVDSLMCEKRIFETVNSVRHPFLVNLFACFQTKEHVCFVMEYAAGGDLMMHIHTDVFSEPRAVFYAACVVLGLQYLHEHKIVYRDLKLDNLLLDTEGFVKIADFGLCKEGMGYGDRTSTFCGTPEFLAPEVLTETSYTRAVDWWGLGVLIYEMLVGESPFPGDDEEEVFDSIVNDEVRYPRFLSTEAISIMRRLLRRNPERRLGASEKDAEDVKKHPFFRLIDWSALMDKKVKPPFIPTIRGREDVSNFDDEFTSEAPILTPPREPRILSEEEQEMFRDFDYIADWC
Experiment: as above
Conditions: compound 0.5 µM; ATP 10 µM

Compared with `COc1cc2c(Nc3ccc(Br)cc3F)ncnc2cc1OCC1CCN(C)CC1`, `c1ccc(-c2cnc(Nc3ccc(OCCN4CCCC4)cc3)s2)cc1` is lower in residual activity: 99.7% for the first, 97% for the second.

Going from `N/C(=N\N=C/c1ccc(-c2cccc([N+](=O)[O-])c2)o1)N[N+](=O)[O-]` to `O=S(=O)(NCCNC/C=C/c1ccc(Br)cc1)c1cccc2cnccc12`, the residual activity falls from 92.6% to 78.9%.

Target: HIPK1 (human) (UniProt Q86Z02)
Experiment: as above
Conditions: compound 0.5 µM; ATP 10 µM

Going from `COc1cc2c(Nc3ccc(Br)cc3F)ncnc2cc1OCC1CCN(C)CC1` to `c1ccc(-c2cnc(Nc3ccc(OCCN4CCCC4)cc3)s2)cc1`, the residual activity falls from 96.7% to 91.3%.

Compared with `N/C(=N\N=C/c1ccc(-c2cccc([N+](=O)[O-])c2)o1)N[N+](=O)[O-]`, `O=S(=O)(NCCNC/C=C/c1ccc(Br)cc1)c1cccc2cnccc12` is higher in residual activity: 81.1% for the first, 91.4% for the second.

Target: TYK2 JH1 catalytic (human) (UniProt P29597)
Experiment: as above
Conditions: compound 0.5 µM; ATP 10 µM

Compared with `COc1cc2c(Nc3ccc(Br)cc3F)ncnc2cc1OCC1CCN(C)CC1`, `c1ccc(-c2cnc(Nc3ccc(OCCN4CCCC4)cc3)s2)cc1` is higher in residual activity: 97.7% for the first, 106% for the second.

First: N/C(=N\N=C/c1ccc(-c2cccc([N+](=O)[O-])c2)o1)N[N+](=O)[O-]
Second: O=S(=O)(NCCNC/C=C/c1ccc(Br)cc1)c1cccc2cnccc12
The residual activity of the first is higher: 110% for the first, 103% for the second.

Target: PLK3 (human) (UniProt Q9H4B4)
Experiment: as above
Conditions: compound 0.5 µM; ATP 10 µM

Going from `COc1cc2c(Nc3ccc(Br)cc3F)ncnc2cc1OCC1CCN(C)CC1` to `c1ccc(-c2cnc(Nc3ccc(OCCN4CCCC4)cc3)s2)cc1`, the residual activity rises from 95% to 98%.

Compared with `N/C(=N\N=C/c1ccc(-c2cccc([N+](=O)[O-])c2)o1)N[N+](=O)[O-]`, `O=S(=O)(NCCNC/C=C/c1ccc(Br)cc1)c1cccc2cnccc12` is higher in residual activity: 96.8% for the first, 98.2% for the second.
